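Step 1: Grow cells in 96-well plates. Step 2: Expose to compound for 48 hours at 5 concentrations. Step 3: Interpolate endpoints linearly; if unreached, use highest concentration. Definition used: TGI = concentration required for complete inhibition of growth.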
What was measured:
Experiment in all cases: DTP human tumour cell line panel, 48 h
[1] = system: SNB-19 CNS
[2] = system: NCI/ADR-RES ovarian
[3] = system: UACC-62 melanoma
[4] = system: UACC-257 melanoma
[5] = system: HS 578T breast
[6] = system: SN12C renal
[7] = system: NCI-H23 lung
[8] = system: EKVX NSCLC
[9] = system: T-47D breast
[10] = system: DU-145 prostate
[11] = system: TK-10 renal
[12] = system: HT29 colon
[13] = system: UO-31 renal
[14] = system: NCI-H460 lung
[15] = system: SF-268 CNS
[16] = system: SF-295 CNS
[17] = system: SK-MEL-2 melanoma
[18] = system: ACHN renal
[19] = system: M14 melanoma
[20] = system: CCRF-CEM leukemia
[21] = system: OVCAR-5 ovarian
[22] = system: MCF7 breast
[23] = system: MDA-MB-231 breast
[24] = system: OVCAR-8 ovarian
[25] = system: A498 renal
[26] = system: MDA-MB-435
[27] = system: HOP-62 NSCLC
[28] = system: HCT-15 colon
[29] = system: 786-0 renal
[30] = system: NCI-H522 lung
[31] = system: K-562 leukemia
[32] = system: OVCAR-3 ovarian
[33] = system: RPMI-8226 leukemia
[34] = system: CAKI-1 renal
[35] = system: COLO 205 colon
[36] = system: SW-620 colon
[37] = system: SK-OV-3 ovarian
[38] = system: RXF 393 renal
[39] = system: HCT-116 colon
[40] = system: OVCAR-4 ovarian
[41] = system: HOP-92 NSCLC
[42] = system: MOLT-4 leukemia
[43] = system: HCC-2998 colon
[44] = system: A549 NSCLC
[45] = system: U251 CNS
[46] = system: MALME-3M melanoma
[47] = system: PC-3 prostate
[48] = system: BT-549 breast
[49] = system: LOX IMVI melanoma
[50] = system: IGROV1 ovarian
[51] = system: KM12 colon
[52] = system: SK-MEL-5 melanoma
[53] = system: SK-MEL-28 melanoma
[54] = system: SF-539 CNS
[55] = system: MDA-N
[56] = system: SR leukemia
[57] = system: HL-60(TB) leukemia
[58] = system: NCI-H226 lung

Measured: TGI

CC(=O)O[C@H]1C[C@](C)(O)[C@@]23CC([C@@H](OC(=O)C(C)(C)O)[C@@H](OC(C)=O)C2(COC(=O)c2ccccc2)[C@H]1OC(C)=O)C(C)(C)O3 (stereo partly specified)
not listed: [56] | [57] | [58]
> 100 µM: all other assays above

CS(=O)(=O)OCC1CCCCCCCCCCC12SCCCS2 (stereo unspecified)
not listed: [33] | [48]
> 100 µM: all other assays above

Source: PubChem BioAssay (NCI)
